Results published in PubChem BioAssay AID1896 (NMMLSC, 2009).
pEC50, pKi: −log10 of the molar value. The source made the active and inactive calls. How the calls were made is not given here.

Molecular target: Mitogen-activated protein kinase kinase kinase 3 (Homo sapiens) (UniProt Q99759)
Assay: inhibitors of MEK5 binding to MEKK3, dose response, biochemical, bead multiplex flow cytometry, wildtype (AID 1896)
Conditions: bead-based multiplex flow cytometry, MEK5-MEKK3 PB1 binding; for pKi: measured here: Ki from EC50

Chain of Mitogen-activated protein kinase kinase kinase 3 (Homo sapiens) (Q99759 whole entry, looked up): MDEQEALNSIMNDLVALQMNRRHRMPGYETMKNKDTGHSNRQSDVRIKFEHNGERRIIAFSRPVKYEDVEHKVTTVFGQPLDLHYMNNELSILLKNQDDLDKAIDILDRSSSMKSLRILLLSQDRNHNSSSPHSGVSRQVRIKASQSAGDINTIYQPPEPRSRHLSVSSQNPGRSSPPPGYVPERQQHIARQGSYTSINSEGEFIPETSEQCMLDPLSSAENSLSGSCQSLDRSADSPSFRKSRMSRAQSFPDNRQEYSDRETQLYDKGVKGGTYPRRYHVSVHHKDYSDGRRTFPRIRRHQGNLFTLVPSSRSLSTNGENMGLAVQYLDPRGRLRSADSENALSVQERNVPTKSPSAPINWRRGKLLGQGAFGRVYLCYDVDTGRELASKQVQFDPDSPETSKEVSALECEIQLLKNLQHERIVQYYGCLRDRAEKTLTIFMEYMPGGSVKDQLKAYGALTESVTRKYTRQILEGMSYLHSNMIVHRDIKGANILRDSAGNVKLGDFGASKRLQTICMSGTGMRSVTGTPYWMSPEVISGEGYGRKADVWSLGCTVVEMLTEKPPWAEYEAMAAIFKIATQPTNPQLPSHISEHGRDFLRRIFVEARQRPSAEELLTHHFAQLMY

Row | SMILES | EC50 | pEC50 | pKi
1 | C#CCOCCOCCOCCNc1nc(N2CCN(C(=O)[C@H](Cc3cc4ccccc4[nH]3)n3cc([C@@H](N)C(C)CC)nn3)CC2)nc(N2CCN(C(=O)[C@H](Cc3cc4ccccc4[nH]3)n3cc([C@@H](N)CC(C)C)nn3)CC2)n1 (some centres undefined) | > 30 µM (inactive) |  | 
2 | NC(N)=N/N=C/c1ccc(OCc2ccccc2Cl)cc1 | > 30 µM (inactive) |  | 
3 | O=C(Nc1ccc(C2=NCCN2)cc1)c1ccc(C(=O)Nc2ccc(C3=NCCN3)cc2)c([N+](=O)[O-])c1 |  | 4.92 | 4.99
4 | CS(=O)(=O)N1N=C(c2ccccc2)CC1c1ccc2c(c1)OCO2 (centres undefined) | > 30 µM (inactive) |  | 
5 | CN1CCN(c2ccc(NC(=O)c3ccc(-c4ccc(Cl)cc4)o3)cc2)CC1 |  | 5.57 | 5.64
6 | COc1ccc(Cn2c(SCc3ccccc3C)nc3cc(OC)c(OC)cc3c2=N)cc1 | > 30 µM (inactive) |  | 
7 | Cc1cc(N=Nc2ccc(C)c(N=Nc3cc(C)c(N)cc3N)c2)c(N)cc1N | > 30 µM (inactive) |  | 
8 | CCCCCc1cc(=O)oc2c(C(CCN3CCCC(C)C3)c3ccc4c(c3)OCO4)c(OC)cc(OC)c12 (centres undefined) | > 30 µM (inactive) |  | 
9 | CCC(/C=C1\Sc2ccc(OC)cc2N1CC)=C\c1sc2ccc(OC)cc2[n+]1CCCS(=O)(=O)[O-] | > 30 µM (inactive) |  | 
10 | CN1C(=O)/C(=C\c2ccc(-c3ccccc3)o2)SC1=S |  | 4.99 | 5.06
11 | CCCCCCCCCCOC(=O)Cn1c(COc2ccccc2)[n+](C)c2ccccc21 | > 30 µM (inactive) |  | 
12 | C#CCOCCOCCOCCNc1nc(N2CCN(C(=O)C(Cc3ccc(O)cc3)n3cc(C(N)CC(C)C)nn3)CC2)nc(N2CCN(C(=O)C(Cc3cc4ccccc4[nH]3)n3cc(C(N)C(C)CC)nn3)CC2)n1 (centres undefined) | > 30 µM (inactive) |  | 
13 | O=C(OCC1O[C@@H](OC(=O)c2cc(O)c(O)c(O)c2)[C@@H](OC(=O)c2cc(O)c(O)c(O)c2)[C@@H](OC(=O)c2cc(O)c(O)c(O)c2)[C@@H]1OC(=O)c1cc(O)c(O)c(O)c1)c1cc(O)c(O)c(O)c1 (some centres undefined) | > 30 µM (inactive) |  | 
14 | Cc1cc2cc(CNC(=O)NC3CCCCC3)ccc2[nH]1 |  | 5.40 | 5.47
15 | CCN(CC)CCOC(=O)c1ccc(N/C=C(/C#N)c2nc(-c3cccc(OC)c3)cs2)cc1 | > 30 µM (inactive) |  | 
16 | CN(C)c1ccc(/C=C/C=C2/SC(=S)N(c3ccccc3)C2=O)cc1 |  | 5.92 | 5.99
17 | CCN1CCN(Cc2ccc(NC(=O)c3cc(NC(=O)c4cncc(-c5cccs5)c4)cc(OC)c3)cc2C(F)(F)F)CC1 | > 30 µM (inactive) |  | 
18 | CCC(=C/c1sc2ccc3ccccc3c2[n+]1C)/C=C1\Sc2ccc3ccccc3c2N1C |  | 6.57 | 6.64
19 | C#CCOCCOCCOCCNc1nc(N2CCN(C(=O)[C@H]([C@@H](C)CC)n3cc([C@@H](N)CO)nn3)CC2)nc(N2CCN(C(=O)[C@H](Cc3cc4ccccc4[nH]3)n3cc([C@@H](N)C(C)CC)nn3)CC2)n1 (some centres undefined) | > 30 µM (inactive) |  | 
20 | C#CCOCCOCCOCCNc1nc(N2CCN(C(=O)[C@H]([C@@H](C)CC)n3cc([C@@H](N)CC(C)C)nn3)CC2)nc(N2CCN(C(=O)[C@H](Cc3cc4ccccc4[nH]3)n3cc([C@@H](N)CC(C)C)nn3)CC2)n1 | > 30 µM (inactive) |  | 
21 | NC(N)=N/N=C/c1ccc(OCc2ccc(Cl)cc2Cl)cc1 | > 30 µM (inactive) |  | 
22 | CCN1C(c2ccccc2)=C(c2ccccc2)S/C1=C/C=C1\SC(=S)N(C)C1=O |  | 5.47 | 5.54
23 | CCN(CC)CCOC(=O)c1ccc(N/C=C(/C#N)c2nc(-c3ccc4c(c3)OCO4)cs2)cc1 | > 30 µM (inactive) |  | 
24 | CCN1/C(=C\c2ccc3cc(C)ccc3[n+]2CC)Sc2cc(C)c(C)cc21 |  | 5.03 | 5.10
25 | CCCCCCCCCCOC(=O)Cn1c(COc2ccc(OC)cc2)[n+](C)c2ccccc21 | > 30 µM (inactive) |  | 
26 | CCCCCCOc1ccc(/C(C)=N/NC2=NCCN2)cc1[N+](=O)[O-] | > 30 µM (inactive) |  | 

Row | SMILES | EC50 | pEC50 | pKi
27 | COc1ccc(-c2[nH]ncc2CN2CCCCCCC2)c(OC)c1 | > 30 µM (inactive) |  | 
28 | FC(F)(F)c1cccc(NC(=S)N(CCCN2CCCC2)Cc2cccn2Cc2ccc(Cl)cc2)c1 | > 30 µM (inactive) |  | 
29 | CCCCCc1cc(=O)oc2c(C(CCN3CCCC3)c3ccc(N(C)C)cc3)c(OC)cc(OC)c12 (centres undefined) | > 30 µM (inactive) |  | 
30 | CCCCCCCCCCOC(=O)Cn1c(COc2ccc(C)cc2)[n+](C)c2ccccc21 | > 30 µM (inactive) |  | 
31 | CCCCCc1cc(=O)oc2c(C(CCN3CCCCC3)c3ccc4c(c3)OCO4)c(OC)cc(OC)c12 (centres undefined) | > 30 µM (inactive) |  | 
32 | COc1ccc2nc(C)cc(N/N=C/c3ccc(F)cc3)c2c1 |  | 5.06 | 5.13
33 | CCN(CC)CCOC(=O)c1ccc(NC(=O)c2cn(-c3ccccc3)nc2-c2cccs2)cc1 | > 30 µM (inactive) |  | 
34 | CCCCCCCCCC[N+](C)(C)CC/C=C1/c2ccccc2Sc2ccc(Cl)cc21 | > 30 µM (inactive) |  | 
35 | C#CCOCCOCCOCCNc1nc(N2CCN(C(=O)C(Cc3cc4ccccc4[nH]3)n3cc(C(N)C(C)CC)nn3)CC2)nc(N2CCN(C(=O)C(Cc3cc4ccccc4[nH]3)n3cc(C(N)C(C)CC)nn3)CC2)n1 (centres undefined) | > 30 µM (inactive) |  | 
36 | CCOc1ccc(C2=C/C(=C/c3cccnc3)C(=O)O2)cc1 | > 30 µM (inactive) |  | 
37 | Nc1cc2nc[nH]c2cc1N |  | 5.10 | 5.17
38 | Cc1cc2ccccc2n1CCNC(=O)c1ccc(Br)o1 |  | 4.93 | 4.99
39 | CCCCCCCCCCOC(=O)Cn1c(COc2cccc(OC)c2)[n+](C)c2ccccc21 | > 30 µM (inactive) |  | 
40 | CNC[C@H](CC1CCCCC1)NC[C@H](Cc1ccccc1)NCCC12CC3CC(CC(C3)C1)C2 | > 30 µM (inactive) |  | 
41 | COc1ccccc1N(CN1C(=O)c2ccccc2C1=O)C(=O)c1cccc(C)c1 | > 30 µM (inactive) |  | 
42 | Cc1cc2ccccc2n1CCNC(=O)c1ccccc1 |  | 5.25 | 5.32
43 | CCN1CCN(Cc2ccc(NC(=O)c3cc(NC(=O)C(=O)c4c[nH]c5ccccc45)cc(OC)c3)cc2C(F)(F)F)CC1 | > 30 µM (inactive) |  | 
44 | COc1cccc(OC)c1-c1nn2c(-c3cc(-c4ccccc4)n[nH]3)nnc2s1 |  | 5.27 | 5.34
45 | Cc1nc(Nc2cnc(/C=C/c3cc(C(=O)Nc4cccc(C(F)(F)F)c4)ccc3C)cn2)cc(N2CCNCC2)n1 |  | 4.60 | 4.67
46 | OCCCCNCc1ccc(OCc2ccc(Cl)cc2Cl)cc1 | > 30 µM (inactive) |  | 
47 | C#CCOCCOCCOCCNc1nc(N2CCN(C(=O)[C@H](Cc3cc4ccccc4[nH]3)n3cc([C@@H](N)CC(C)C)nn3)CC2)nc(N2CCN(C(=O)[C@H](Cc3cc4ccccc4[nH]3)n3cc([C@@H](N)CC(C)C)nn3)CC2)n1 | > 30 µM (inactive) |  | 
48 | O=C1Nc2ccc(Br)cc2/C1=N/N=C/C1=C(N2CCOCC2)C(=C\c2ccccc2)/CC1 |  | 5.75 | 5.82
49 | CC[n+]1c(/C=C/C=C/N(C(C)=O)c2ccccc2)sc2ccccc21 | > 30 µM (inactive) |  | 
50 | Cc1nn2c(N)csc2nc1=O |  | 5.38 | 5.45
51 | Cc1sc(NC(=O)c2ccccc2)c(C(c2ccccn2)N2CCN(CCO)CC2)c1C (centres undefined) | > 30 µM (inactive) |  | 
52 | O=C1c2ccccc2-c2onc3ccc(NCc4ccco4)c1c23 | > 30 µM (inactive) |  | 

Row | SMILES | EC50 | pEC50 | pKi
53 | N=C(N)SCc1cn(-c2ccccc2)nc1-c1ccc(Br)cc1 | > 30 µM (inactive) |  | 
54 | CCc1ccc(Nc2n[n+](-c3ccccc3)c(-c3cc(OC)c(OC)cc3Br)s2)cc1 | > 30 µM (inactive) |  | 
55 | CC(=O)Nc1cccc2c1C(=O)N(c1cccc(C)c1)C2=O | > 30 µM (inactive) |  | 
56 | CCCCN(CC)CCNC(=O)c1cc2c(-c3ccc(Cl)cc3)nn(C)c2s1 | > 30 µM (inactive) |  | 
57 | COc1ccc(Cn2cc3c(-c4ccc(F)cc4)nnc-3c3cc(OC)c(OC)cc32)cc1 | > 30 µM (inactive) |  | 
58 | CCOC(=O)c1c(-c2ccc(-c3ccccc3)cc2)csc1NC(=O)CNCCN(C)C | > 30 µM (inactive) |  | 
59 | O=[N+]([O-])c1ccc(/C=C/C2=NN(c3ccccc3)C(c3ccco3)C2)o1 (centres undefined) | > 30 µM (inactive) |  | 
60 | CCOC(=O)C1=C(c2ccccc2)NC(N)=NC1c1ccc(OCc2ccc(Cl)cc2)c(OC)c1 (centres undefined) | > 30 µM (inactive) |  | 
61 | C#CCOCCOCCOCCNc1nc(N2CCN(C(=O)[C@H](CCCCN)n3cc([C@@H](N)CC(C)C)nn3)CC2)nc(N2CCN(C(=O)[C@H](Cc3cc4ccccc4[nH]3)n3cc([C@@H](N)Cc4ccc(O)cc4)nn3)CC2)n1 | > 30 µM (inactive) |  | 
62 | COc1ccc(-c2csc(N(CCCN(C)C)C(=O)c3ccccc3Cl)n2)cc1 | > 30 µM (inactive) |  | 
63 | CCOC(=O)c1c(CSC(=N)N)n(-c2ccc(C)cc2)c2cc(Br)c(OC(C)=O)cc12 | > 30 µM (inactive) |  | 
64 | CCOc1cccc2sc(N(CCCN(C)C)C(=O)c3ccc(S(=O)(=O)N4CCc5ccccc5C4)cc3)nc12 | > 30 µM (inactive) |  | 
65 | CCOC(=O)N1CCN(c2c(N3CCN(c4ccccc4F)CC3)c(=O)c2=O)CC1 | > 30 µM (inactive) |  | 
66 | CC(C)n1cc(CN2CCC(C(=O)Nc3cccc(-c4cccc(Cl)c4)c3)CC2)cn1 | > 30 µM (inactive) |  | 
67 | CCN1/C(=C/c2ccc3cc(C)ccc3[n+]2C)Sc2ccc3sccc3c21 | > 30 µM (inactive) |  | 
68 | Cc1ccccc1OCC(O)CNC1CCC(NCC(O)COc2ccccc2C)CC1 (centres undefined) | > 30 µM (inactive) |  | 
69 | CCN(CC)CCNC(=O)c1ccc(NC(=O)c2cn(-c3ccccc3)nc2-c2cccs2)cc1 | > 30 µM (inactive) |  | 
70 | CC(=O)Nc1ccc(OCC(O)Cn2c3ccccc3c3ccccc32)cc1 (centres undefined) | > 30 µM (inactive) |  | 
71 | CCCCCCCCCCCCCCCC[n+]1ccc(/C=N/O)cc1 | > 30 µM (inactive) |  | 
72 | COc1ccc(CNC[C@@H](CCCCN(C)Cc2ccc(OC)cc2)N2C[C@H](c3ccccc3)N(CCc3ccc(Cl)c(Cl)c3)C(=O)C2=O)cc1 | > 30 µM (inactive) |  | 
73 | CCN1CCN(Cc2ccc(NC(=O)c3cc(NC(=O)c4cnn(-c5ccccc5)c4N)cc(OC)c3)cc2C(F)(F)F)CC1 | > 30 µM (inactive) |  | 
74 | CCc1ccc(-c2nn(-c3ccccc3)cc2CSC(=N)N)cc1 | > 30 µM (inactive) |  | 
75 | Cc1cc2ccccc2n1CCNC(=O)c1cccs1 | > 30 µM (inactive) |  | 
76 | CCC(/C=C1\Sc2ccc(OC)cc2N1CCO)=C\c1sc2ccc(OC)cc2[n+]1CCO |  | 5.55 | 5.62
77 | COc1cc(CNCCc2c[nH]c3ccccc23)ccc1OCc1ccccc1F | > 30 µM (inactive) |  | 
